{"source": "paper PMC12647645", "about": "“Structural interactions of BWC0977 with Klebsiella pneumoniae topoisomerase IV and biochemical basis of its broad-spectrum activity” (Communications Biology, 2025)", "key": {"P. aeruginosa BAA 2794": {"test_system": "P. aeruginosa BAA 2794", "test": "microbe, parasite or virus in culture", "format": "cell-based", "conditions": "Pseudomonas aeruginosa, BAA2794"}, "[1]": {"test_system": "E. coli MG1655 (GyrA WT, ParC WT)", "test": "microbe, parasite or virus in culture", "format": "cell-based", "conditions": "Escherichia coli"}, "K. pneumoniae ATCC 13883": {"test_system": "K. pneumoniae ATCC 13883", "test": "MIC broth microdilution", "format": "cell-based", "conditions": "Klebsiella pneumoniae, ATCC13883"}, "E. faecalis": {"test_system": "E. faecalis", "design": "method as in ref 7 (Arends et al., 2019)", "conditions": "ref 7 (Arends et al., 2019); cited from earlier work"}, "E. faecalis ATCC 29212": {"test_system": "E. faecalis ATCC 29212", "test": "MIC broth microdilution", "format": "cell-based", "conditions": "Enterococcus faecalis, ATCC29212"}, "[2]": {"test_system": "E. coli MG1655 GyrA WT, ParC R119K", "test": "microbe, parasite or virus in culture", "format": "cell-based", "conditions": "Escherichia coli"}, "K. pneumoniae": {"test_system": "K. pneumoniae", "conditions": "ref 7 (Arends et al., 2019); cited from earlier work"}, "S. aureus ATCC 29213": {"test_system": "S. aureus ATCC 29213", "test": "MIC broth microdilution", "format": "cell-based", "conditions": "Staphylococcus aureus, ATCC29213"}, "A. baumannii ATCC 19606": {"test_system": "A. baumannii ATCC 19606", "test": "MIC broth microdilution", "format": "cell-based", "conditions": "Acinetobacter baumannii, ATCC19606"}, "P. aeruginosa BAA 2797": {"test_system": "P. aeruginosa BAA 2797", "test": "microbe, parasite or virus in culture", "format": "cell-based", "conditions": "Pseudomonas aeruginosa, BAA2797"}, "E. coli ATCC 25922 [3]": {"test_system": "E. coli ATCC 25922", "test": "MIC broth microdilution", "format": "cell-based", "conditions": "Escherichia coli, ATCC25922"}, "K. pneumoniae KPNIH1": {"test_system": "K. pneumoniae KPNIH1", "test": "microbe, parasite or virus in culture", "format": "cell-based", "conditions": "Klebsiella pneumoniae"}, "E. coli ATCC 25922 [4]": {"test_system": "E. coli ATCC 25922", "test": "Resistant mutant generation by serial passage method", "format": "cell-based", "conditions": "Escherichia coli, read-out: MIC, serial passage"}, "S. aureus": {"test_system": "S. aureus", "conditions": "ref 8 (Flamm et al., 2017); cited from earlier work"}, "P. aeruginosa ATCC 27853": {"test_system": "P. aeruginosa ATCC 27853", "test": "MIC broth microdilution", "format": "cell-based", "conditions": "Pseudomonas aeruginosa, ATCC27853"}, "E. cloacae": {"test_system": "E. cloacae", "conditions": "ref 7 (Arends et al., 2019); cited from earlier work"}, "E. coli": {"test_system": "E. coli", "conditions": "ref 8 (Flamm et al., 2017); cited from earlier work"}, "P. aeruginosa gyrase": {"target": "P. aeruginosa gyrase (Pseudomonas aeruginosa, UniProt P48372+Q9I7C2)", "sequence (Q9I7C2 whole entry)": "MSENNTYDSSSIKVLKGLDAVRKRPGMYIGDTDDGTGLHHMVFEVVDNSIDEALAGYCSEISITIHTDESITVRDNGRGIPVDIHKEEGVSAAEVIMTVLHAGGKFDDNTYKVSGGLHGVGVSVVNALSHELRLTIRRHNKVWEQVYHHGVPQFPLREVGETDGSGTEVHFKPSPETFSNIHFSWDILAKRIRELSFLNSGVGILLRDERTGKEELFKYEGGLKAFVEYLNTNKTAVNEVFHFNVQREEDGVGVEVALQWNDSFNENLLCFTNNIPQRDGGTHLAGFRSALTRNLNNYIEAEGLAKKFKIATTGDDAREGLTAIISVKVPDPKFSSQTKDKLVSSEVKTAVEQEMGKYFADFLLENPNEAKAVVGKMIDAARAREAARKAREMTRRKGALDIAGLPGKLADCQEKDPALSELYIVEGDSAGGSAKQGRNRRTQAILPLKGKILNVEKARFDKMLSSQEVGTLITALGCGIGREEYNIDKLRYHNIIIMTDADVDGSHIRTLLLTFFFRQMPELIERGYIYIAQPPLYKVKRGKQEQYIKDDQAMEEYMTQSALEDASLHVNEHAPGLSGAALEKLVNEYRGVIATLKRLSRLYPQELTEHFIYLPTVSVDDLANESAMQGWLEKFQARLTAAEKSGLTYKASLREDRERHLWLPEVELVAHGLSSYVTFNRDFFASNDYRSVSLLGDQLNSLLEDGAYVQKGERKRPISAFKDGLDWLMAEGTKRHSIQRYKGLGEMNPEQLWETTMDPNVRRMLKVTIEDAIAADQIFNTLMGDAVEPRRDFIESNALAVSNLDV", "sequence (P48372 whole entry)": "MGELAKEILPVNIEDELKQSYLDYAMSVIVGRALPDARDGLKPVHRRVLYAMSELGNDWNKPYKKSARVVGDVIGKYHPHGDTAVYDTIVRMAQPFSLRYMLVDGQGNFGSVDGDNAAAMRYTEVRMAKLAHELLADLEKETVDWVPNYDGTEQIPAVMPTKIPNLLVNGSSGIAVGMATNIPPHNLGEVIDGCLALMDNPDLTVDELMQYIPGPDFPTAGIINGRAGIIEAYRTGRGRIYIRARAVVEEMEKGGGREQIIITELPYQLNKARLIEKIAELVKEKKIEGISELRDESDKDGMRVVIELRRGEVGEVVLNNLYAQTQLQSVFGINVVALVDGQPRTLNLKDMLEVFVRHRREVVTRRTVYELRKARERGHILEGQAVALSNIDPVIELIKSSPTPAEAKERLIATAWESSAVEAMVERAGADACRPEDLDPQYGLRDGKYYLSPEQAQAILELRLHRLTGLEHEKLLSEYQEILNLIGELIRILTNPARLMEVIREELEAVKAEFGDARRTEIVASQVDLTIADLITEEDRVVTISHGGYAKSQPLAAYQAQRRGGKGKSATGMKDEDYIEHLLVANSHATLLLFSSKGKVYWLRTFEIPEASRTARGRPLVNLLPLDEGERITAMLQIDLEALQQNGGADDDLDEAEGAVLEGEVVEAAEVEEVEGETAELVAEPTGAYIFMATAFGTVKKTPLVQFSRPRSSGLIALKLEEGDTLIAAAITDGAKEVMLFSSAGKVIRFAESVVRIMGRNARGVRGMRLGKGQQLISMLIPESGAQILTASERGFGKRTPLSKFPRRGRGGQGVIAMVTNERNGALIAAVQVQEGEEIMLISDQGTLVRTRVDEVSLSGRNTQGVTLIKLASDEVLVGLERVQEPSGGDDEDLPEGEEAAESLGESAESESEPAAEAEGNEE", "test": "biochemical"}, "[5]": {"target": "P. aeruginosa topoisomerase IV (Pseudomonas aeruginosa, UniProt Q9HUJ8+Q9HUK1)", "sequence (Q9HUK1 whole entry)": "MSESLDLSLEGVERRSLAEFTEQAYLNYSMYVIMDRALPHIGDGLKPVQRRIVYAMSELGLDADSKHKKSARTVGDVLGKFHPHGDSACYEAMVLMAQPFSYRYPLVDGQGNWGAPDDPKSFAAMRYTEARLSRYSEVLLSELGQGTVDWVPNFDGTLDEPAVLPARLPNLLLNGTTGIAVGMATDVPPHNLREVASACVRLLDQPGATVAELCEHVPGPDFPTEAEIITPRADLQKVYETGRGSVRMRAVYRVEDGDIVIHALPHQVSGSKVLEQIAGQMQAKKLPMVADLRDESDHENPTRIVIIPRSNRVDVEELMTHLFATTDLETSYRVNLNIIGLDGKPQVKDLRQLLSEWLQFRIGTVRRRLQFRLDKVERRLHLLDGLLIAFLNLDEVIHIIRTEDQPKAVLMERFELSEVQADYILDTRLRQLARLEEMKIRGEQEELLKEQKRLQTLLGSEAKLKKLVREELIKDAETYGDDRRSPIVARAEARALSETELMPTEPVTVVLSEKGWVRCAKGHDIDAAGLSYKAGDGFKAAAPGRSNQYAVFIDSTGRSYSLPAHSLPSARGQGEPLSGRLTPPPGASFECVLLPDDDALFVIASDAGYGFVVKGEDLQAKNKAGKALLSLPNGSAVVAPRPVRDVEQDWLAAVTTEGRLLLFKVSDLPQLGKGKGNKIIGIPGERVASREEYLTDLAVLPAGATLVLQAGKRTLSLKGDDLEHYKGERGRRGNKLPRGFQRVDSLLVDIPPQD", "sequence (Q9HUJ8 whole entry)": "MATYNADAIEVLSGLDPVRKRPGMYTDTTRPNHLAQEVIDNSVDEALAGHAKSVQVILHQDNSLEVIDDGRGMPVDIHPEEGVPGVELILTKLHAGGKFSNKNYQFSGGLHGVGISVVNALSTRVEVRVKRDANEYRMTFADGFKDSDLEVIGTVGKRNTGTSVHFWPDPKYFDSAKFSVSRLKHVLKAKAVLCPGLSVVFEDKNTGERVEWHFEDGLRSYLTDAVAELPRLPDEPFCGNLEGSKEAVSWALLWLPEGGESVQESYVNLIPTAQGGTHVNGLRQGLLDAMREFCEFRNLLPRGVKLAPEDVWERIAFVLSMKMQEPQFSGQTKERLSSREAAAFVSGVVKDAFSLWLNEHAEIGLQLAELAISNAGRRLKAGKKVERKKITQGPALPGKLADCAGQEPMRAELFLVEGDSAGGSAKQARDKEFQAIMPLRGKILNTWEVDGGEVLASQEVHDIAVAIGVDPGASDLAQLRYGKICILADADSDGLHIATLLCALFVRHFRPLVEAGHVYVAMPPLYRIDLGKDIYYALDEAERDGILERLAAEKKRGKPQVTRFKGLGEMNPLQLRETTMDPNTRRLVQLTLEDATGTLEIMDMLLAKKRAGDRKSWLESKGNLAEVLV", "test": "Topoisomerase IV decatenation assay, P. aeruginosa", "format": "biochemical", "protocol": "Topoisomerase IV decatenation reactions were performed using 2.5 nM E. coli enzyme and 60 ng kinetoplast DNA (kDNA) in an assay buffer containing 50 mM HEPES-KOH (pH 7.6), 100 mM potassium glutamate, 10 mM magnesium acetate, 10 mM DTT, 1 mM ATP, and 50 μg/mL albumin. Assays with P. aeruginosa topoisomerase IV (3 nM) were conducted in a similar buffer but with 50 mM HEPES-KOH (pH 7.9), 100 mM potassium glutamate, 6 mM magnesium acetate, 6 mM DTT, 1 mM ATP, 2 mM spermidine, and 50 μg/mL albumin. For S. aureus topoisomerase IV assay, the reactions contained 4 nM enzyme in an assay buffer composed of 50 mM Tris-HCl (pH 7.5), 5 mM MgCl₂, 5 mM DTT, 1.5 mM ATP, 350 mM potassium glutamate, and 0.05 mg/mL albumin. The procedures followed were consistent with those used in the supercoiling assays. Decatenated minicircles were resolved on 0.8% agarose gels, while the kDNA substrate remained in the wells. Gels were stained with 0.8 μg/mL ethidium bromide solution for 10 min, followed by destaining. DNA bands were visualized using a gel documentation system, and compound inhibition analysis was carried out using the same procedures described for the supercoiling assays."}, "Human topo IIß": {"target": "Human topo IIß (Homo sapiens, UniProt Q02880)", "sequence (Q02880 whole entry)": "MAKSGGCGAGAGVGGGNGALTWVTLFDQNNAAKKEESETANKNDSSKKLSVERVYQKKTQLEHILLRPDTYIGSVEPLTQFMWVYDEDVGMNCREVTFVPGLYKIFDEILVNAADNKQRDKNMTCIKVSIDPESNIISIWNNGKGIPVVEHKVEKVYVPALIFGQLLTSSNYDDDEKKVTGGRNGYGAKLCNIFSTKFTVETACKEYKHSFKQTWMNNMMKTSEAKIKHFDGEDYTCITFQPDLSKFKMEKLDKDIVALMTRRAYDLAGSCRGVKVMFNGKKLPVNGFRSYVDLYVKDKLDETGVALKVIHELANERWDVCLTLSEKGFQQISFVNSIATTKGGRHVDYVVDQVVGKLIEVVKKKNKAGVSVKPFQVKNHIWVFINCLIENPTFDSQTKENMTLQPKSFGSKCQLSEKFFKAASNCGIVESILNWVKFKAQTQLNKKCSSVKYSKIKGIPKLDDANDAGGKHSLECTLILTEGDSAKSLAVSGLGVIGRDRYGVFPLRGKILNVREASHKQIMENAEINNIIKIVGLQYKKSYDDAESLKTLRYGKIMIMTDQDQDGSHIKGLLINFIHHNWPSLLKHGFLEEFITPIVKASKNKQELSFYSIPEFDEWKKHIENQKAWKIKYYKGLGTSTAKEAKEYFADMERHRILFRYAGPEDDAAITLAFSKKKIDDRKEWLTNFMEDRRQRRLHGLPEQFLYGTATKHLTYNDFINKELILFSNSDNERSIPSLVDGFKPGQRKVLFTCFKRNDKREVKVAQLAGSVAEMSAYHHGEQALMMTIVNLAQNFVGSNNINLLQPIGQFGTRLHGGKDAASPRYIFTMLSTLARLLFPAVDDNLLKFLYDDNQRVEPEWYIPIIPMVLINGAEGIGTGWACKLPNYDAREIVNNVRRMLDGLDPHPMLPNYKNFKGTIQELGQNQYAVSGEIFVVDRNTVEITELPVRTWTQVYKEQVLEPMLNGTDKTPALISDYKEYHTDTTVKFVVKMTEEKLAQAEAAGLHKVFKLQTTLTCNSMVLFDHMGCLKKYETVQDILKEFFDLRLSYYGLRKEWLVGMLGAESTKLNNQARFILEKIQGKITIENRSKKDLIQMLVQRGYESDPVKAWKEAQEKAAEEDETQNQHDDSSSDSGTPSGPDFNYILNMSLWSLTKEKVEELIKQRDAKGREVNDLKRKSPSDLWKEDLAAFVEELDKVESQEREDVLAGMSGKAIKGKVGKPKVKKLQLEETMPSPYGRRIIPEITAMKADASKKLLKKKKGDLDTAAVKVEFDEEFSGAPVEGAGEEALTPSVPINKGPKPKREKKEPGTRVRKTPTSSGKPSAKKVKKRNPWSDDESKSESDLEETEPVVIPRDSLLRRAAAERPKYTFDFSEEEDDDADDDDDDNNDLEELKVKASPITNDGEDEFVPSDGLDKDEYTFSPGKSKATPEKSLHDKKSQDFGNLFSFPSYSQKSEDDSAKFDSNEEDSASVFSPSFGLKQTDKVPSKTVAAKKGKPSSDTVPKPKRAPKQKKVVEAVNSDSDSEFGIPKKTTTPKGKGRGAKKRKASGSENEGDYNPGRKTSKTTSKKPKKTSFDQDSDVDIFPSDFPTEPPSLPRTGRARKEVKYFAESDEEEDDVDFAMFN", "test": "Human topo IIß decatenation assay", "format": "biochemical", "protocol": "(§1) Human topo IIα (0.9 nM) and topo IIß (2.2 nM) decatenation assays were performed following the same protocol used for bacterial topoisomerase IV decatenation assays. The assay buffer was made of 50 mM Tris. HCl (pH 7.5), 125 mM NaCl, 10 mM MgCl2, 5 mM DTT, and 100 μg/mL albumin."}, "[6]": {"test_system": "E. coli MG1655 GyrA D82N, ParC WT", "test": "microbe, parasite or virus in culture", "format": "cell-based", "conditions": "Escherichia coli"}, "A. baumannii BAA 2885": {"test_system": "A. baumannii BAA 2885", "test": "microbe, parasite or virus in culture", "format": "cell-based", "conditions": "Acinetobacter baumannii, BAA2885"}, "Human topo IIα": {"target": "Human topo IIα (Homo sapiens, UniProt P11388)", "test": "Human topo IIα decatenation assay", "format": "biochemical", "conditions": "read-out: IC50 Human topo IIα decatenation", "protocol": "as §1"}, "E. coli BAA 2471": {"test_system": "E. coli BAA 2471", "test": "microbe, parasite or virus in culture", "format": "cell-based", "conditions": "Escherichia coli, BAA2471"}, "E. coli BAA 2469": {"test_system": "E. coli BAA 2469", "test": "microbe, parasite or virus in culture", "format": "cell-based", "conditions": "Escherichia coli, BAA2469"}, "[7]": {"test_system": "E. coli MG1655 GyrA D82N, ParC D79N", "test": "microbe, parasite or virus in culture", "format": "cell-based", "conditions": "Escherichia coli"}, "K. pneumoniae BAA 2782": {"test_system": "K. pneumoniae BAA 2782", "test": "microbe, parasite or virus in culture", "format": "cell-based", "conditions": "Klebsiella pneumoniae, BAA2782"}, "K. pneumoniae BAA 2784": {"test_system": "K. pneumoniae BAA 2784", "test": "microbe, parasite or virus in culture", "format": "cell-based", "conditions": "Klebsiella pneumoniae, BAA2784"}, "[8]": {"test_system": "E. coli MG1655 GyrA WT, ParC D79N", "test": "microbe, parasite or virus in culture", "format": "cell-based", "conditions": "Escherichia coli"}, "[9]": {"test_system": "E. coli MG1655 GyrA R121K, ParC WT", "test": "microbe, parasite or virus in culture", "format": "cell-based", "conditions": "Escherichia coli"}, "[10]": {"test_system": "E. coli MG1655 GyrA M120A, ParC M118A", "test": "microbe, parasite or virus in culture", "format": "cell-based", "conditions": "Escherichia coli"}}}
{"compound": "O=c1ccc2ncc(=O)n3c2n1C[C@H]3CN1CCC(NCc2cc3c(cn2)OCCC3)CC1", "note": "[Gepotidacin, reference compound]", "values": [{"measurement": "MIC", "setting": "P. aeruginosa BAA 2794", "result": 0.5, "unit": "µg/mL"}, {"measurement": "MIC", "setting": "[1]", "result": 0.47, "unit": "µg/mL"}, {"measurement": "MIC", "setting": "K. pneumoniae ATCC 13883", "result": 1, "unit": "µg/mL"}, {"measurement": "MIC90 against diverse global isolates", "setting": "E. faecalis", "result": 2, "unit": "µg/mL"}, {"measurement": "MIC", "setting": "E. faecalis ATCC 29212", "result": 1, "unit": "µg/mL"}, {"measurement": "MIC", "setting": "[2]", "result": 0.42, "unit": "µg/mL"}, {"measurement": "MIC90 against diverse global isolates", "setting": "K. pneumoniae", "result": 16, "unit": "µg/mL"}, {"measurement": "MIC", "setting": "S. aureus ATCC 29213", "result": 0.125, "unit": "µg/mL"}, {"measurement": "MIC", "setting": "A. baumannii ATCC 19606", "result": 2, "unit": "µg/mL"}, {"measurement": "MIC", "setting": "P. aeruginosa BAA 2797", "result": 1, "unit": "µg/mL"}, {"measurement": "MIC", "setting": "E. coli ATCC 25922 [3]", "result": 0.5, "unit": "µg/mL"}, {"measurement": "MIC", "setting": "K. pneumoniae KPNIH1", "result": 8, "unit": "µg/mL"}, {"measurement": "MIC", "setting": "E. coli ATCC 25922 [4]; ATCC25922, 24 h", "result": 0.25, "unit": "µg/mL"}, {"measurement": "MIC", "setting": "E. coli ATCC 25922 [4]; ATCC25922, 288 h", "result": 1.25, "unit": "µg/mL"}, {"measurement": "MIC90 against diverse global isolates", "setting": "S. aureus", "result": 0.5, "unit": "µg/mL"}, {"measurement": "MIC", "setting": "P. aeruginosa ATCC 27853", "result": 1, "unit": "µg/mL"}, {"measurement": "MIC90 against diverse global isolates", "setting": "E. cloacae", "result": 16, "unit": "µg/mL"}, {"measurement": "MIC90 against diverse global isolates", "setting": "E. coli", "result": 4, "unit": "µg/mL"}, {"measurement": "IC50", "setting": "P. aeruginosa gyrase", "result": 0.35, "unit": "µM"}, {"measurement": "IC50", "setting": "[5]", "result": 1.56, "unit": "µM"}, {"measurement": "IC50", "setting": "Human topo IIß", "result": "> 200", "unit": "µM"}, {"measurement": "MIC", "setting": "[6]", "result": 0.42, "unit": "µg/mL"}, {"measurement": "MIC", "setting": "A. baumannii BAA 2885", "result": 2, "unit": "µg/mL"}, {"measurement": "IC50", "setting": "Human topo IIα", "result": "> 200", "unit": "µM"}, {"measurement": "MIC", "setting": "E. coli BAA 2471", "result": 2, "unit": "µg/mL"}, {"measurement": "MIC", "setting": "E. coli BAA 2469", "result": 0.5, "unit": "µg/mL"}, {"measurement": "MIC", "setting": "[7]", "result": "> 40", "unit": "µg/mL"}, {"measurement": "MIC", "setting": "K. pneumoniae BAA 2782", "result": 1, "unit": "µg/mL"}, {"measurement": "MIC", "setting": "K. pneumoniae BAA 2784", "result": 1, "unit": "µg/mL"}, {"measurement": "MIC", "setting": "[8]", "result": 0.83, "unit": "µg/mL"}, {"measurement": "MIC", "setting": "[9]", "result": 0.13, "unit": "µg/mL"}, {"measurement": "MIC", "setting": "[10]", "result": 0.63, "unit": "µg/mL"}]}
